Patent US7049321B2, “Methods and pharmaceutical compositions for treatment of central and peripheral nervous system disorders and compounds useful therefor” (Israel Institute for Biological Research, priority 2002, dated 2006)

Columns and labels:
muscarinic receptor = experiment: [3H]OXO-M competition binding; details: rat cortex
M1 receptors = molecular target: T1, M1 receptors (Rattus norvegicus, UniProt P08482); experiment: [3H]PZ competition binding to rat cortical membranes; details: rat cortex
T1 construct: from tissue; host or cells: rat cortical membranes
T1 sequence (P08482 1-460): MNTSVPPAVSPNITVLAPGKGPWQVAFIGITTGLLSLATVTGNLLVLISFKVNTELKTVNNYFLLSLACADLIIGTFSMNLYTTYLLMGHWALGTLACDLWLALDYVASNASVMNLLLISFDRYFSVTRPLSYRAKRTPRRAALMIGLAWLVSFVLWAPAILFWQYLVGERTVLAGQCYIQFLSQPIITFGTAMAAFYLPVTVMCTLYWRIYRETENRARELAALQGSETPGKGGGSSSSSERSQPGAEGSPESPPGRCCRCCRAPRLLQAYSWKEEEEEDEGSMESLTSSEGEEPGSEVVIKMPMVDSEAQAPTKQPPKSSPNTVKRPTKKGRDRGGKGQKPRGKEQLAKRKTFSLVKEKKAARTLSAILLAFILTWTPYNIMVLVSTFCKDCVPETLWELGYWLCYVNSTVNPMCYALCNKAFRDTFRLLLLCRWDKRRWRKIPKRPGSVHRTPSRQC
Description: Pirenzepine (PZ), a muscarinic antagonist, binds preferentially to M1 receptors while OXO-M binds to all mAChR subtypes non-selectively; the ratio between the Ki values for PZ versus that of OXO-M may be indicative of the selectivity of the tested compound. The smaller the ratio, the more M1 selective is the tested compound. […] The OXO-M/PZ ratio is ˜0.36 showing a moderately high selectivity for the M1 receptor.

M2 mAChR = molecular target: T2, M2 mAChR (Homo sapiens, UniProt P08172); experiment: Intracellular Ca increase in modified cell cultures, M2; format: cell-based
T2 construct: expressed in transfected cells; host or cells: 'modified cell cultures' giving a Ca increase; modification not described

[1] = system: rat primary cerebral cortex cell cultures; experiment: APPs secretion in rat primary cortical cell cultures; format: cell-based; details: 100 μm
[2] = system: rat primary hippocampal cell cultures; experiment: APPs secretion in rat primary hippocampal cell cultures; format: cell-based; details: 100 μm
rabbits with nbm lesions = experiment: CSF and cortical Aβ in hypocholinergic (nbm-lesioned) rabbits; format: in vivo, New Zealand White rabbits; details: 4 weeks
Description: It is known that experimentally-induced cortical cholinergic denervation results in biochemical elevations of cortical Aβ concentrations and in histologic Aβ deposition (Beach et al, Neurosci Lett 283: 9–12, 2000), and that administration of muscarinic Ml-selective agents to normal animals decreases CSF AP concentrations {Beach et al Brain Res. 905: 220–223, 2001}.
Twenty-eight female New Zealand White rabbits, about 2.5 kg each (young adults) were used. Twenty-one received lesions of the cholinergic nucleus basalis magnocellularis (nbm). The lesion was accomplished with unilateral i.c.v. injections of an immunotoxin consisting of the ribosomal toxin saporin conjugated to the monoclonal antibody ME20.4, which is directed against the low-affinity neurotrophin receptor, p75. The ME20.4 antibody is made against monkey p75 and also recognizes rabbit p75. The dose of immunotoxin was 32.4 μg in 12 μl; this was delivered to the right lateral ventricle 2 mm lateral to the bregma. Seven animals received i.c.v. injections of sterile normal saline (sham lesion). Animals which received the immunotoxin were divided into 3 groups of 7. […] Another group received physostigmine hemisalicylate in normal saline by s.c. osmotic pump at a daily dose of 3 mg/kg. The third group received twice-daily sterile saline s.c. injections. The animals which received a sham lesion were implanted with s.c. osmotic pumps filled with sterile normal saline. Animals were euthanized 4 weeks after surgery. […] Cerebrospinal fluid was taken from the cisterna magna of all animals at the time of sacrifice; the brain was removed and sliced coronally into 0.5 cm slices. […] The other slices were frozen on sheets of dry ice (the other slices are the non-fixed 0.5 cm coronal slices of cerebrum, brainstem and cerebellum).

T2 sequence (P08172 whole entry): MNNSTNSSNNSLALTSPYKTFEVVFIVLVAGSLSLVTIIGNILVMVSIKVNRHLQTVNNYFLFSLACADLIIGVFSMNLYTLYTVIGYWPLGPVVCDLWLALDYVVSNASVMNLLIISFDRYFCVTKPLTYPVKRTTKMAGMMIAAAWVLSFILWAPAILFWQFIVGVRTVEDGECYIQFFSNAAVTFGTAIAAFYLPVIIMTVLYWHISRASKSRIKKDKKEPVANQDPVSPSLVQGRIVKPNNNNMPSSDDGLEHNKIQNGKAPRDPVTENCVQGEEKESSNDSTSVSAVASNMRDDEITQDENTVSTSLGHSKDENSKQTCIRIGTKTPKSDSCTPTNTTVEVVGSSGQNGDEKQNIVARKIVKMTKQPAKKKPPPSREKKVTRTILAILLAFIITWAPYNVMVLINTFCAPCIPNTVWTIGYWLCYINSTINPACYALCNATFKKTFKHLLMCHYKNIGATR

Q: Which results are given for `CC[C@H]1SC2(CCNCC2)NC1=O` [AF291, (R)-2-Ethyl-1-thia-4,8-diaza-spiro[4.5]decan-3-one]?
A: Ki (muscarinic receptor): 6.56 µM; Ki (M1 receptors): 10.7 µM

Q: For `C[N+](C)(C)CCOC(N)=O` [carbachol, reference compound], which “Increase in activity on the M2 mAChR” value (M2 mAChR) is on record?
A: Its value is 8 fold.

Q: Which results are given for `CNC(=O)Oc1ccc2c(c1)[C@]1(C)CCN(C)[C@@H]1N2C` [physostigmine, reference compound]?
A: APPs secretion, activity in words [1]: inactive; APPs secretion, activity in words [2]: inactive; Histologic Aβ deposition, % of the lesioned, untreated group (rabbits with nbm lesions): 6.4%
